# Assays:
# [1] = system: platelets in whole blood; assay: T2MR platelet-induced clot contraction with platelet agonist, uncoated polypropylene tube; format: cell-based, human
# From the text: Platelet-induced clot contraction was used for measuring platelet activity and inhibition using a formulation of reptilase (RF), factor XIIIa (FXIIIa), and platelet agonist such as arachidonic acid (AA) or adenosine diphosphate (ADP). The RF and FXIIIa induce the formation of a fibrin mesh rapidly without activating platelets. This occurs rapidly as compared to clot contraction. In developing a platelet activity assay for the agonist arachidonic acid (AA) we were able to see reproducible […] signatures that titrated with the concentration of AA as expected ([…] curves acquired from whole blood with 0.5 mM, 1.0 mM, and 1.5 mM AA). In a typical clot contraction signal there is an upper […] signal that increases rapidly between 5 and 10 minutes and the appearance of a lower […] signal around the same point in time. The upper signal corresponds to water excreted from the clot and the lower signal corresponds to water trapped in the contracted clot. The lowest level has the slowest kinetics. […] In developing a platelet activity assay for the agonist ADP we encountered a problem with reproducibility. For example, in triplicate measures (3 samples obtained in parallel from freshly drawn blood) the clot contraction signal might appear for only one sample and/or the triplicate measures might vary in the signal intensity of the clot contraction signal. Reproducible results were obtained from AA, but not ADP. This is believed to result from the fact that AA is a stronger platelet activator than ADP. This conclusion is supported by the following observations. […] Second, aging the blood could lead to stronger clot contraction signals, presumably due to basal thrombin activation that led to more platelet induced clot contraction. Third, adding low levels of thrombin could lead to more platelet induced clot contraction. Therefore, there is a difference in the strength of platelet activation for AA and ADP.
# [2] = system: platelet activity; assay: T2MR platelet inhibition, heparin blood activated by AA+RF; format: cell-based, human; conditions: 600 μM aspirin ex vivo
# Method: In this experiment platelet inhibition was monitored by the addition of 600 μM aspirin ex vivo to heparin blood prior to activation by AA+RF (samples were tested with and without aspirin). […] These studies confirmed that the clot signature was dependent on platelet activity.
# [3] = system: platelets in blood samples; assay: T2MR ADP activation titration in Triton X-100 coated polypropylene tubes; format: cell-based, human; conditions: Triton X-100 coated tube
# Method: Platelet-induced clot contraction was used for measuring platelet activity and inhibition using a formulation of reptilase (RF), factor XIIIa (FXIIIa), and platelet agonist such as arachidonic acid (AA) or adenosine diphosphate (ADP). The RF and FXIIIa induce the formation of a fibrin mesh rapidly without activating platelets. This occurs rapidly as compared to clot contraction. Briefly, blood samples were activated with varying levels of ADP in 0.2 mL polypropylene tubes coated with Triton X-100. […] Additionally, levels below […] are now able to show a clot contraction signal when the polypropylene surface is coated with Triton X-100. Furthermore, this signal is much stronger than that previously observed for ADP activated samples in polypropylene tubes without coating.
# [4] = system: platelets; assay: Tube-dried collagen as platelet activator, T2MR; format: cell-based; conditions: 2 micrograms dried in microtube; whole blood and RBC-depleted plasma
# Method: Collagen is a potent activator of platelets, and recognition of exposed collagen from the cellular matrix is one of the in vivo signals for platelet activation. […] To prepare the tube, 2 micrograms (2 μL of a 1 mg/ml solution) was deposited in the bottom of a microtube and the tube placed at 37° C. for 2-5 hours. A tube prepared in this way can be kept at room temperature or at 37° C. for several weeks. To measure a T2MR signature 34 μL of citrated whole blood (or RBC-depleted blood) were added to the tube at 37 degrees; after 1 minute 2 μL of 0.2M CaCl2 was added and the sample placed in the magnet for relaxation measurements and analysis.
# [5] = PT clotting time, T2MR and Stago; set-up: species or system human; conditions: spiked 10 ng/mL-1000 ng/mL
# Method: Clotting times were measured by […] by first establishing a time zero T2 value (i.e., by taking the first point or some sort of average or linear fit to the first 5-10 data points) of the T2 time curve, and second identifying the time point (i.e., the clotting time or PT time) in the T2 time curve when the T2 value had changed by a predetermined amount (e.g. 5% or 10%) indicative of clotting in the sample. From the observed PT clotting time the INR was calculated using the methods described in Jan et al., Clin. Chem. 35:840 (1989). […] 18 normal samples and 24 abnormal samples were tested against a reference range established by 20 normal samples. Abnormal samples with prolonged PT times were obtained by spiking increasing levels of the anti-Xa inhibitor Rivaroxiban (10 ng/mL-1000 ng/mL). Correlation with TEG clotting time was obtained across >40 normal patient samples with non-optimized R2 correlation of >0.8. (see FIG. 14B). PT time correlations with Stago for plasma (see FIG. 14D) and with Hemochron for whole blood (see FIG. 14C) were also found.
# [6] = system: platelets in whole blood; conditions: 5-20 μM epinephrine
# Method: A titration of epinephrine ranging from 5-20 μM was added to the activation cocktail (comprised of reptilase, factor XIIIa, calcium, and platelet activator). 4 μL of the activation cocktail was added to 36 μL of whole blood in a coated tube. The tube containing the reaction was placed in a T2MR reader. T2MR relaxation curve data was processed with an Inverse Laplace transformation algorithm.
# [7] = T2MR fibrinogen assay with thrombin; set-up: species or system human; conditions: 45 μM MnSO4 in buffer diluent
# Method: T2MR measures the formation of fibrin directly in the whole blood or plasma in the presence of thrombin. The solution of thrombin (STAGO, 5 U/mL) is added to the diluted solution of plasma (or blood) and the change in T2 signal is monitored. The sample begins to clot immediately upon addition of thrombin, resulting in a rapid decrease in T2 signal. In order to achieve better sample relaxation rate and reduce noise in the measured T2 signal the paramagnetic material (MnSO4) is added to the buffer diluent (STAGO, Owren-Koller buffer), with a final concentration of the MnSO4 in diluent of 45 μM. […] The buffer diluent containing paramagnetic material is used to prepare thrombin 5 U/mL stock by diluting 80 U/mL stock and to prepare standard dilutions for the calibration curve.
compound,measurement,setting,value
"CCCCC/C=C\C/C=C\C/C=C\C/C=C\CCCC(=O)O [AA, arachidonic acid]",concentration that typically causes clot retraction,[1],0.5 to 1 mM
same,platelet-induced clot contraction,[1]; typical level of AA,strong platelet-induced clot contraction
"CC(=O)Oc1ccccc1C(=O)O [aspirin, acetylsalicylic acid]",clot-associated T2 signal,[2],dramatically diminished or absent
"Nc1ncnc2c1ncn2[C@@H]1O[C@H](COP(=O)(O)OP(=O)(O)O)[C@@H](O)[C@H]1O [ADP, adenosine diphosphate]",clot formation T2MR signal,[3]; 2.5 mM ADP,partial clot formation is observed
same,clot formation T2MR signal,[3]; 0.5 and 1 mM ADP,no clot formation signal is observed
same,clot formation T2MR signal,"[3]; 5, 10, 20 mM ADP",complete clot formation is observed
same,clot retraction after gel phase,[1]; ADP activation,retraction does not occur
same,platelet-induced clot contraction,[1]; ten-fold excess (over standard levels) of ADP,weak and irreproducible platelet-induced clot contraction
collagen,T2MR clot peak,[4],effectively generate a T2MR clot peak
O=C(NC[C@H]1CN(c2ccc(N3CCOCC3=O)cc2)C(=O)O1)c1ccc(Cl)s1 [Rivaroxiban],PT times,[5],prolonged
CNC[C@H](O)c1ccc(O)c(O)c1 [epinephrine],sample response (clot contraction),[6],responsive
same,timing of clot contraction,[6],dose dependent
O=S(=O)([O-])[O-].[Mn+2] [MnSO4],effect on the clotting process,[7],no significant effect

# Source: US9739733B2, “Methods for monitoring tight clot formation” (T2 Biosystems, Inc., priority 2012, dated 2017)
